# Where “and” joins values, the source holds several entries; their conditions need not be identical. Equal entries are not always repeated.
# Tests used:
# class 1 HDACs 1 and 2 = conditions: data from Bradner et al., FIG. 6; cited from earlier work
# cell line panel = assay: Cell line panel viability screen (Cell Titer-Glo), S-value; type: cell-based
# Method: (§1) Sensitivity of cells to HDAC inhibitor treatment is expressed as their S-value (S), which is a dimensionless compound value generated by adding the values of IC50 and the growth rate (GR) at the maximum drug concentration used to determine the IC50. The term (maximum drug concentration/200) is added in the equation below to achieve equal weighting of the S-value for IC50 and GR. S=IC50+(GR+100)×(maximum drug concentration/200) See FIG. 1 for an example of an S value calculation and explanation of GR.
# (§2) To determine cell growth IC50 and GR at a given drug concentration, growth was plotted against drug concentration as a percentage of the number of cells present at the beginning of the experiment. Cells were plated in 96-well plates and allowed to attach and grow overnight. The following day, the cells were treated with serial dilutions of test compound. The viable cells were measured at day 0 (24 hours after plating) and day 3 (72 hours after adding the tested compound) using Cell Titer-Glo. Growth was calculated compared to day 0.
# (§3) The plot generated two key data, the IC50 value and the % growth at the highest tested compound concentration (GR). The highest concentration tested for romidepsin was 1000 nM.
# The IC50s in these experiments could range from 0-1000 nM. […] Growth at the highest drug concentration tested ranged from −100 to +100. For the calculation of the S-Value, 100 was added to the numerical value of the observed growth, so that only positive numbers were generated (after adding 100, the range was from 0-200). Since IC50s and growth at the maximum drug concentration tested have different numerical ranges (0-1000 as compared to 0-200), the value for growth inhibition was multiplied by the maximum drug concentration used/200. This means that in the example given, both IC50 and GR could contribute values of 0-1000 to the S-value.
# A cell line panel viability screen was used to compare the effects of a 6 hour and 72 hour treatment with romidepsin across a wide variety of cell lines. […] The S-Value was computed for the 6 h treatment and ranged from 5 for the most sensitive cell lines to 2000 for the most resistant cell lines. To identify genes whose expression correlated with sensitivity to HDAC inhibitor treatment, we applied two way ANOVA to select genes that were correlated with sensitivity. […] The most overexpressed gene in the resistant subgroup, ABCB1 (Res/Sen=29.6) is known to cause resistance to romidepsin treatment. This approach identified novel genes that correlated with resistance and/or sensitivity to the HDAC inhibitors but not tissue origin.
# A cell line panel viability screen was used to compare the effects of romidepsin across a wide variety of cell lines and is shown in FIG. 3.
# SKOV3 TSPYL5 KD cells = assay: Cell growth assay (Cell Titer-Glo) in SKOV3 cells expressing TSPYL5 shRNA; type: cell-based
# Method: as §1, §2
# The plot generated two key data, the IC50 value and the % growth at the highest tested compound concentration (GR). […]
# Effect of knocking down TSPYL5 expression using shRNA on IC50, GR and S values of romidepsin treatment. […] Knockdown of TSPYL5 in SKOV3 TSPYL5 KD cells was verified using western blot and quantitative PCR. […]
# [1] = test system: primary human tumors propagated in mice; assay: Clonogenic two-layer soft agar assay of primary patient tumor explants; type: cell-based; conditions: IC50 of clonogenic assay against TSPYL5 expression, FIG. 4
# Method: Primary human tumors were propagated in mice. Tumors were dissociated and their sensitivity to romidepsin was tested using a clonogenic assay.
# The clonogenic assay was performed in a 24-well format according to a modified two-layer soft agar assay introduced by Hamburger & Salmon (Hamburger A W, Salmon S E. Primary bioassay of human tumor stem cells. Science 197:461 (1977)). Briefly, cells were seeded on a bottom layer of growth medium supplemented with 0.4% (w/v) agar. Cells were added in 0.2 ml of the same medium supplemented with 0.4% (w/v) agar. Test compounds were applied diluted in culture medium. Cultures were incubated at 37° C. and 7.5% CO2 in a humidified atmosphere for up to 21 days. After 4-21 days, colonies were counted and drug effect was expressed as percent colony formations compared to untreated controls.
# SKOV3 NS cells = assay: Cell growth assay (Cell Titer-Glo) in SKOV3 cells expressing non-silencing control shRNA; type: cell-based; conditions: for IC50: romidepsin, 5 independent experiments
# Method: as §1, §2, §3
# Effect of knocking down TSPYL5 expression using shRNA on IC50, GR and S values of romidepsin treatment. SKOV3 cells expressing either TSPYL5 shRNA (SKOV3 TSPYL5 KD) or non-silencing control shRNA (SKOV3 NS) were created using lentiviral infection. Knockdown of TSPYL5 in SKOV3 TSPYL5 KD cells was verified using western blot and quantitative PCR. Expression of TSPYL5 in these cells was reduced by 70%. After selection of stable pools with puromycin, cells were treated with varying concentrations of romidepsin for determination of IC50, GR and S value. Data from 5 independent experiments are shown. SKOV3 TSPYL5 KD cells have lower IC50s, show […] growth rate (GR) and have thus smaller S values than SKOV3 NS cells, meaning these cells are more sensitive to treatment with romidepsin. The data are plotted in FIG. 5. Differences between the 2 lines are significant (paired t test).
# HDF TSPYL5 KD cells = assay: Cell growth assay in human dermal fibroblasts with TSPYL5 knockdown; type: cell-based; conditions: HDF TSPYL5 KD versus HDF NS, FIG. 8
# From the text: FIG. 8 depicts the effect of knockdown of TSPYL5 expression on sensitivity of HDF cells to romidepsin using shRNA, as measured by the effect of romidepsin treatment on IC50 (Panel A), growth rate (GR) (Panel B) and S value (Panel C). Sensitivity of TSPYL5 knockdown cells to romidepsin is increased as measured by S value and growth rate. HDF cells expressing either TSPYL5 shRNA (HDF TSPYL5 KD) or non-silencing control shRNA (HDF NS) were created using lentiviral infection. Knockdown of TSPYL5 in HDF TSPYL5 KD cells was verified using western blot and quantitative PCR. Expression of TSPYL5 in these cells was reduced by >70%. After selection of stable pools with puromycen, cells were treated with varying concentrations of romidepsin for determination of IC50, GR and S value. The data shown are means and standard deviations from 8 independent experiments. Panel A: Romidepsin IC50s for HDF TSPYL5 KD cells and HDF NS cells. Panel B: Romidepsin GR for HDF TSPYL5 KD cells and HDF NS cells. […]
# as §2, with “Cells were plated in 96-well plates and allowed to attach and grow overnight. The following day, the cells were treated with serial dilutions of test compound.” left out
# class 2 HDAC 6 = target: T1, class 2 HDAC 6 (Homo sapiens, UniProt Q9UBN7); conditions: data from Bradner et al., FIG. 6; cited from earlier work
# T1 sequence (Q9UBN7 1-1215): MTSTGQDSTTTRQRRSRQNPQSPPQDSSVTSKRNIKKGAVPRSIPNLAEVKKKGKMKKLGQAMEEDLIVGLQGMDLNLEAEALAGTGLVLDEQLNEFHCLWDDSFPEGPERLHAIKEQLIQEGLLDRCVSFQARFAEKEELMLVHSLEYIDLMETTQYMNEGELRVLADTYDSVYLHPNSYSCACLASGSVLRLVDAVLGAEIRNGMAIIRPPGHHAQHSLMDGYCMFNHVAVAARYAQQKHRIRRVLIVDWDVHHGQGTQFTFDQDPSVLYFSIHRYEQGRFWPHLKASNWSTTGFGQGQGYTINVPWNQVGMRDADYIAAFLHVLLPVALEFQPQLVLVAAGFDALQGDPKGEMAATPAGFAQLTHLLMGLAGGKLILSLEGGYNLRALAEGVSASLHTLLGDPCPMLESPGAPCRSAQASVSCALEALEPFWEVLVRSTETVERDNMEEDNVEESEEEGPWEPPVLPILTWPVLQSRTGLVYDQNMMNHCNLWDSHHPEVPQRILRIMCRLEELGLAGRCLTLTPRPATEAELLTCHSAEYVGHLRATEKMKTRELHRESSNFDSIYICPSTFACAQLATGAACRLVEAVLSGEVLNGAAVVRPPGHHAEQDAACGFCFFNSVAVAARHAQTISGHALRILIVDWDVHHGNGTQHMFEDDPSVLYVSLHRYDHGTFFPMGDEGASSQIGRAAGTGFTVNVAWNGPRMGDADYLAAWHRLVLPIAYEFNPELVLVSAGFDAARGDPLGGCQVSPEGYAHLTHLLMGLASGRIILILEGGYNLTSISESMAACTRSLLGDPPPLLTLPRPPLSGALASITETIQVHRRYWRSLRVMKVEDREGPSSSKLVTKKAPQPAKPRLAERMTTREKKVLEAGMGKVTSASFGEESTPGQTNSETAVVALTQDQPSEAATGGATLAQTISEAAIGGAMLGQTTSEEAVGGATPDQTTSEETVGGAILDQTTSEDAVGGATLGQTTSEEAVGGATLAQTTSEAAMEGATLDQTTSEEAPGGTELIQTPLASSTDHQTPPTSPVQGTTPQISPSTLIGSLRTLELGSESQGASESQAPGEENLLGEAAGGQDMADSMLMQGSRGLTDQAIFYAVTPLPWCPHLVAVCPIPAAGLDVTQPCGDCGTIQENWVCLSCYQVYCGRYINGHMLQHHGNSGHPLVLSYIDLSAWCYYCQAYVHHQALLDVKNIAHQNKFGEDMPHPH
structure (smiles),measurement,setting,value
Nc1ccccc1NC(=O)c1ccc(CNC(=O)OCc2cccnc2)cc1 [entinostat],Inhibition of class 1 HDACs 1 and 2,class 1 HDACs 1 and 2,inhibit
C/C=C1\NC(=O)[C@H]2CSSCC/C=C/[C@H](CC(=O)N[C@H](C(C)C)C(=O)N2)OC(=O)[C@H](C(C)C)NC1=O [romidepsin],Sensitivity by tissue of origin,"cell line panel; 6 h drug treatment, S value, FIG. 2B",blood cell lines show the greatest sensitivity
same,S-value across cell lines,"cell line panel; 6 h drug treatment, most sensitive to most resistant cell lines",4-2000
same,Sensitivity of cell lines,cell line panel; 72 hour treatment,majority of the tested cell lines showed sensitivity
same,Sensitivity of cell lines expressing high levels of TSPYL5,"cell line panel; S value against TSPYL5 gene expression, FIG. 3",no cell line expressing high levels of TSPYL5 was sensitive
same,IC50,cell line panel; read-out: IC50 of cell growth,97.3 nM
same,S value,SKOV3 TSPYL5 KD cells; S=IC50+(GR+100)×(maximum drug concentration/200),156 and 115 and 105 and 112 and 135
same,GR (growth at the highest tested concentration),"SKOV3 TSPYL5 KD cells; highest romidepsin concentration 1000 nM, relative to day 0",−92.5% and −88.6% and −93.2% and −86.1% and −84.3%
same,Sensitivity of primary tumors with high TSPYL5 expression,[1],resistant
same,IC50,"SKOV3 NS cells; Homo sapiens, SK-OV-3, SKOV3 NS (non-silencing control shRNA)",141 nM
same,IC50,SKOV3 NS cells; SKOV3 NS (non-silencing control shRNA),136 nM and 139 nM and 98 nM and 162 nM
same,S value,"SKOV3 NS cells; SKOV3 NS, S=IC50+(GR+100)×(maximum drug concentration/200)",291 and 253 and 256 and 230 and 243
same,Effect of TSPYL5 knockdown on sensitivity of HDF cells,HDF TSPYL5 KD cells,increases sensitivity
same,Inhibition of class 1 HDACs 1 and 2,class 1 HDACs 1 and 2,inhibit
O=C(CCCCCCC(=O)Nc1ccccc1)NO [vorinostat],Inhibition of class 2 HDAC 6,class 2 HDAC 6,inhibit

# — patent US9134325B2, “Resistance biomarkers for HDAC inhibitors” (Celgene Corporation, priority 2012, dated 2015)
